Laboratory results from publication PMC10064984, “Anti-cyclooxygenase, anti-glycation, and anti-skin aging effect of Dendrobium officinale flowers’ aqueous extract and its phytochemical validation in aging” (Frontiers in Immunology, 2023).
Values joined by “and” are separate entries in the source; they are usually repeats but may differ in a detail not shown here. Identical values can stand only once. Like-named read-outs stand apart in the source and are kept apart here.

Key:
Assay type in all cases: biochemical
[1] = molecular target: T1, COX-2 (Homo sapiens, UniProt P35354); test: Anti-COX-2 assay (COX-2 Inhibitor Screening Kit)
T1 construct: purchased Beyotime S0168
T1 sequence (P35354 18-604): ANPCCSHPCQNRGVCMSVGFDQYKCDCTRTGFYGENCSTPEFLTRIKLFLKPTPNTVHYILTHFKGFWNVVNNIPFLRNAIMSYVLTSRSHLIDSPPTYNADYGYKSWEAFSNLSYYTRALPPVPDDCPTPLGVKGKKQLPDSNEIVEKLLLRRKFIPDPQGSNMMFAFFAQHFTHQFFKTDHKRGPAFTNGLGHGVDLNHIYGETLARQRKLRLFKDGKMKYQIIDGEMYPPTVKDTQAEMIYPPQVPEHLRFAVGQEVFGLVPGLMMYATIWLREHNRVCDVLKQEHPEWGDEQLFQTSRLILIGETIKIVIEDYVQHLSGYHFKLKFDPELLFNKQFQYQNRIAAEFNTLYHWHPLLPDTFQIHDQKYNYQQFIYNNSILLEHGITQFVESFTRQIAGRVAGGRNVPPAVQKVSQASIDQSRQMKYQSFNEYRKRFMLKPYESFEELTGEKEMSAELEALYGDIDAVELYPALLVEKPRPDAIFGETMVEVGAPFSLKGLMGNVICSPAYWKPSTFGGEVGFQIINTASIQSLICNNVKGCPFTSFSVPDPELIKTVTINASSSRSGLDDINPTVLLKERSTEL

[2] = FRAP total antioxidant capacity; conditions: lower part of sheet (compound series);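 further: colourimetric FRAP kit assay read as absorbance in 96-well plates, values as mM FeSO4 via standard curve, EC1 being sample concentration matching 1.0 mmol/L FeSO4, Trolox positive control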
[3] = ABTS·+ decolourisation capacity; conditions: for ABTS scavenging rate: 0.5mM series, replicate wells, listed as T19; for IC50: mean ± SD, n = 3
Experimental: Fast colourimetric methods were slightly modified for the in vitro assessment of DPPH· scavenging ([19]), ABTS·+ decolourisation capacity ([20]), and total antioxidant capacity of FRAP ([21]). The stock solutions of derivatisation reagents were diluted as follows before measurement: DPPH was diluted with absolute ethanol until the absorbance was 0.8 ± 0.05 at λ = 517 nm. ABTS working solution was prepared with phosphate buffer (0.2 M, pH 7.4) to display absorbance of 0.8 ± 0.05 at λ = 729 nm, based on a previous study ([22]). The FRAP solution was prepared according to the instructions of the FRAP kit. Absorbances were measured using an automatic microplate reader (Molecular Group Ltd., USA), and all analyses were performed using 96-well plates. All measurements were performed in triplicate, and Trolox was used as a positive control.
For ABTS·+ decolourisation capacity, 100 μl of ABTS working solution was mixed with 200 μl of sample solution, and the absorbance was recorded after 10 min at 729 nm. Phosphate buffer (0.2 M, pH 7.4) was used as a negative control.
DPPH· and ABTS·+ radical scavenging activities of the tested sample were both calculated using the following formula:
% inhibition = (A control − A sample)/A control × 100
Where A control and A sample represent the absorbance of the control and test samples, respectively. The IC50 was calculated graphically from the dose-inhibition curves.

[4] = Fluorescent AGEs formation in a BSA-fructose/glucose system; conditions: mean ± SD, n = 3; read-out: BSA-glycation IC50
Experimental: Glycated protein was prepared in vitro by incubating BSA in the presence of D-glucose (GLC) and D-fructose (FRC). The DOF extract and specific standards were dissolved in DMSO:water (1:4). […] The assay was performed in triplicate, and AG was used as a positive control. The percentage inhibition of fluorescent AGE formation was calculated using the following equation: […] Where IF sample is fluorescence intensity in the presence of samples and BSA, IF sample control is fluorescence intensity in the presence of samples without BSA, IF control is fluorescence intensity without samples, and IF blank control is fluorescence intensity without samples and BSA.

[5] = DPPH· scavenging; conditions: mean ± SD, n = 3;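 further: colourimetric DPPH radical scavenging in 96-well plates, absorbance read-out, percent inhibition relative to ethanol control absorbance, IC50 derived graphically from dose-inhibition curves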

## O=c1cc(-c2ccc(O)c(O)c2)oc2c(C3OCC(O)C(O)C3O)c(O)c(C3OC(CO)C(O)C(O)C3O)c(O)c12 [compound 15, Luteolin-6-C-β-D-glucoside-8-C-β-D-xyloside]
[1]
  COX-2 inhibition (in words): great COX-2 inhibition
[1]; 3.125 μM, single replicates
  inhibition at 3.125 µM: 14.6%
[1]; 3.125 μM, single replicates, listed as T19, 3.125 µM
  COX-2 inhibition: 14.16% and 11.51%
[1]; 6.25 μM, single replicates
  inhibition at 6.25 µM: 39.3%
[1]; 6.25 μM, single replicates, listed as T19, 6.25 µM
  COX-2 inhibition: 23.77% and 25.81%
[1]; 12.5 μM, single replicates
  inhibition at 12.5 µM: 60.5%
[1]; 12.5 μM, single replicates, listed as T19, 12.5 µM
  COX-2 inhibition: 53.05% and 54.30%
[1]; 25 μM, single replicates
  inhibition at 25 µM: 71.9%
[1]; 25 μM, single replicates, listed as T19, 25 µM
  COX-2 inhibition: 68.96% and 71.63%
[1]; 50 μM, single replicates
  inhibition at 50 µM: 75.8%
[1]; 50 μM, single replicates, listed as T19, 50 µM
  COX-2 inhibition: 74.58% and 74.45%
[1]; 100 μM, single replicates
  inhibition at 100 µM: 83.1%
[1]; 100 μM, single replicates, listed as T19, 100 µM
  COX-2 inhibition: 75.76% and 77.02%
[1]; 200 μM, single replicates
  inhibition at 200 µM: 80.8%
[1]; 200 μM, single replicates, listed as T19, 200 µM
  COX-2 inhibition: 78.95% and 81.08%
[1]; mean ± SD, n = 3, nd, not detected, read-out: COX-2 IC50
  IC50: 13.9 ± 2.4 µM
[1]; supplement sheet COX, read-out: COX-2 IC50, single replicate
  IC50: 11.2 µM and 15.8 µM and 14.8 µM
[2]
  FRAP EC1: 1100.3 ± 138.4 µM
[3]; concentration 7.8125 (unit not given)
  ABTS scavenging rate: 33.84% and 32.82% and 31.57%
[3]; concentration 15.625 (unit not given)
  ABTS scavenging rate: 51.02% and 51.43% and 45.77%
[3]; concentration 31.25 (unit not given)
  ABTS scavenging rate: 80.79% and 81.13% and 77.35%
[3]; concentration 62.5 (unit not given)
  ABTS scavenging rate: 99.45% and 99.39% and 98.61%
[3]; concentration 125 (unit not given)
  ABTS scavenging rate: 99.58% and 99.48% and 99.50%
[3]; concentration 250 (unit not given)
  ABTS scavenging rate: 99.61% and 99.60% and 99.48%
[3]; concentration 500 (unit not given)
  ABTS scavenging rate: 99.69% (2×) and 99.56%
[3]
  IC50: 13.8 ± 0.82 µM
[4]
  IC50: 294 ± 13.3 µM
[5]
  IC50: 145 ± 51.4 µM

## O=c1cc(-c2ccc(O)cc2)oc2c(C3OCC(O)C(O)C3O)c(O)c(C3OC(CO)C(O)C(O)C3O)c(O)c12 (stereo not shown) [compound 17, Schaftoside]
[1]
  COX-2 inhibition (in words): no inhibitory effects
[1]; 31.25 μM, single replicates, listed as T4, 31.25 µM
  COX-2 inhibition: -26.58% and -23.72% and 26.46%
[1]; 62.5 μM, single replicates, listed as T4, 62.5 µM
  COX-2 inhibition: -5.78% and -8.50% and -9.30%
[1]; 125 μM, single replicates, listed as T4, 125 µM
  COX-2 inhibition: -21.60% and 2.72%
[1]; 250 μM, single replicates, listed as T4, 250 µM
  COX-2 inhibition: -34.33% and -33.14% and 20.94%
[1]; 500 μM, single replicates, listed as T4, 500 µM
  COX-2 inhibition: -36.70% and -25.03% and -14.74%
[1]; 1000 μM, single replicates, listed as T4, 1000 µM
  COX-2 inhibition: -40.79% and -25.81% and -34.65%
[1]; 2000 μM (2mM), single replicates, listed as T4
  COX-2 inhibition: -30.80% and -21.24% and -15.63%
[2]
  FRAP EC1: >5000 µM
[3]
  IC50: 75.6 ± 12.1 µM
[4]
  IC50: 250 ± 4.16 µM
[5]
  IC50: > 5000 µM
